Here are results for 10 molecules from ChEMBL document CHEMBL1139429, “2-Thiazolylimino/heteroarylimino-5-arylidene-4-thiazolidinones as new agents with SHP-2 inhibitory action” (J Med Chem, 2008).

The target in the assay is T1, Tyrosine-protein phosphatase non-receptor type 11 (Homo sapiens, UniProt Q06124).
T1 sequence (Q06124 whole entry): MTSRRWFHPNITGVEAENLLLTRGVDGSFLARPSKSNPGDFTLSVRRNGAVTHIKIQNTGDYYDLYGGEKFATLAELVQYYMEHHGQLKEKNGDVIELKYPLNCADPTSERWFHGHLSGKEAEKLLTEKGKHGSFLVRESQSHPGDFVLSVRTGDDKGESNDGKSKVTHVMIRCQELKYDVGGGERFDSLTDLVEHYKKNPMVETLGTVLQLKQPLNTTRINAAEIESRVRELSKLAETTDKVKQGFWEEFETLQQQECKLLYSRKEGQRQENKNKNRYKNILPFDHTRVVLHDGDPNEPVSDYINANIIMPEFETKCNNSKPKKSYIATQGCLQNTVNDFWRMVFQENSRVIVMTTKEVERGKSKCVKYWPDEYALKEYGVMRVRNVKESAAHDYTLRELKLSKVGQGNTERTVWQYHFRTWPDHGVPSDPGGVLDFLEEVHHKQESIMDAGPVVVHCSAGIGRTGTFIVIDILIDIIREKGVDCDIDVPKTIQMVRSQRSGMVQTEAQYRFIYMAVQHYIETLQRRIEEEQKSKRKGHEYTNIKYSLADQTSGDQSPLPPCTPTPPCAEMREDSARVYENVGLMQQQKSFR
As to the kind of experiment: Inhibition of human recombinant GST-fused SHP2 using p-nitrophenyl phosphate as substrate.

On to `COc1ccc(/C=C2/S/C(=N/c3nccs3)NC2=O)cc1`, for which the Ki turned out to be 11.7 µM. The figure for `COc1cc(/C=C2/S/C(=N/c3nc(-c4ccccc4)cs3)NC2=O)ccc1O` is 103 µM.

As for `COc1cc(/C=C2/S/C(=N\c3nsc4ccccc34)NC2=O)ccc1O`, the Ki worked out at 90.8 µM. The same measure for `COc1cc(/C=C2/S/C(=N/c3nc4ccccc4s3)NC2=O)cc(OC)c1O`: 18.1 µM.

Consider `COc1cc(/C=C2/S/C(=N/c3nc(C45CC6CC(CC(C6)C4)C5)cs3)NC2=O)ccc1O`, for which the Ki was 12.3 µM. The same measure for `COc1cc(/C=C2/S/C(=N/c3nc4ccc([N+](=O)[O-])cc4s3)NC2=O)cc(OC)c1O`: 12.9 µM; for `O=C1N/C(=N\c2nccs2)S/C1=C/c1cccc(Cl)c1`: 1090 µM; for `O=C1N/C(=N\c2nc3ccccc3s2)S/C1=C/c1cccc([N+](=O)[O-])c1`: 28.7 µM. The figure for `O=C1N/C(=N\c2nccs2)S/C1=C/c1ccc([N+](=O)[O-])cc1` is 474 µM; for `COc1ccc(/C=C2/S/C(=N\c3nsc4ccccc34)NC2=O)cc1` it is 22.8 µM.

A word on the Ki: it is the dissociation constant of the complex between target and ligand, obtained from inhibition or displacement.
